# ChEMBL document CHEMBL1201862, “PubChem BioAssay data set” (2004)
#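 Method: 48-hour compound exposure of cells in 96-well plates, five concentrations, linear interpolation of endpoints. GI50: concentration for 50% inhibition of growth.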 The source made the active and inactive calls. Rule as the data show it: active = GI50 up to about 1.1 µM and inactive = higher.
# Tests used:
# Experiment in all cases: DTP human tumour cell line panel, 48 h
# [1] = test system: 786-0
# [2] = test system: A549
# [3] = test system: ACHN
# [4] = test system: CAKI-1
# [5] = test system: CCRF-CEM
# [6] = test system: COLO 205
# [7] = test system: DLD-1
# [8] = test system: DMS-114
# [9] = test system: DMS-273
# [10] = test system: EKVX
# [11] = test system: HCC 2998
# [12] = test system: HCT-15
# [13] = test system: HL-60
# [14] = test system: HOP-62
# [15] = test system: HOP-92
# [16] = test system: HT-29
# [17] = test system: IGROV-1
# [18] = test system: K562
# [19] = test system: KM12
# [20] = test system: LOX IMVI
# [21] = test system: LXFL 529
# [22] = test system: M14
# [23] = test system: M19-MEL
# [24] = test system: MOLT-4
# [25] = test system: Malme-3M
# [26] = test system: NCI-H226
# [27] = test system: NCI-H460
# [28] = test system: NCI-H522
# [29] = test system: OVCAR-3
# [30] = test system: OVCAR-4
# [31] = test system: OVCAR-5
# [32] = test system: OVCAR-8
# [33] = test system: RPMI-8226
# [34] = test system: RXF 393
# [35] = test system: RXF 631
# [36] = test system: SF-268
# [37] = test system: SF-295
# [38] = test system: SF-539
# [39] = test system: SK-MEL-28
# [40] = test system: SK-MEL-2
# [41] = test system: SK-MEL-5
# [42] = test system: SK-OV-3
# [43] = test system: SN12C
# [44] = test system: SNB-19
# [45] = test system: SNB-75
# [46] = test system: SNB-78
# [47] = test system: SW-620
# [48] = test system: TK-10
# [49] = test system: U-251
# [50] = test system: UACC-257
# [51] = test system: UACC-62
# [52] = test system: UO-31
# [53] = test system: XF498
# [54] = test system: A498
# [55] = test system: HCT-116
# [56] = test system: HOP-18
# [57] = test system: KM-20L2
# [58] = test system: NCI-H23
# [59] = test system: SR
smiles,measurement,setting,value
COC(=O)C(=Cc1cc(OC)ccc1OC)C(=O)OC,GI50,[1],23.4 µM (inactive)
same,GI50,[2],31 µM (inactive)
same,GI50,[3],17.3 µM (inactive)
same,GI50,[4],18.9 µM (inactive)
same,GI50,[5],20 µM (inactive)
same,GI50,[6],18.2 µM (inactive)
same,GI50,[7],29 µM (inactive)
same,GI50,[8],20.8 µM (inactive)
same,GI50,[9],32.3 µM (inactive)
same,GI50,[10],33.7 µM (inactive)
same,GI50,[11],19.1 µM (inactive)
same,GI50,[12],25.2 µM
same,GI50,[13],21.8 µM (inactive)
same,GI50,[14],27.5 µM (inactive)
same,GI50,[15],19.2 µM (inactive)
same,GI50,[16],21.8 µM (inactive)
same,GI50,[17],25.5 µM (inactive)
same,GI50,[18],18 µM (inactive)
same,GI50,[19],20.6 µM (inactive)
same,GI50,[20],18.2 µM (inactive)
same,GI50,[21],16.6 µM (inactive)
same,GI50,[22],15.3 µM (inactive)
same,GI50,[23],22 µM (inactive)
same,GI50,[24],27.4 µM (inactive)
same,GI50,[25],26.9 µM (inactive)
same,GI50,[26],53.6 µM (inactive)
same,GI50,[27],30.8 µM (inactive)
same,GI50,[28],15.1 µM (inactive)
same,GI50,[29],21.2 µM (inactive)
same,GI50,[30],20.3 µM (inactive)
same,GI50,[31],28.2 µM (inactive)
same,GI50,[32],30 µM (inactive)
same,GI50,[33],25.9 µM (inactive)
same,GI50,[34],16 µM (inactive)
same,GI50,[35],32 µM (inactive)
same,GI50,[36],34.2 µM (inactive)
same,GI50,[37],28.2 µM (inactive)
same,GI50,[38],24.7 µM (inactive)
same,GI50,[39],23.6 µM (inactive)
same,GI50,[40],22.1 µM (inactive)
same,GI50,[41],19.1 µM (inactive)
same,GI50,[42],31.5 µM (inactive)
same,GI50,[43],24.9 µM (inactive)
same,GI50,[44],44 µM (inactive)
same,GI50,[45],19.9 µM (inactive)
same,GI50,[46],34.1 µM (inactive)
same,GI50,[47],23.7 µM (inactive)
same,GI50,[48],36.3 µM (inactive)
same,GI50,[49],19.8 µM (inactive)
same,GI50,[50],14.1 µM (inactive)
same,GI50,[51],20.9 µM (inactive)
same,GI50,[52],23 µM (inactive)
same,GI50,[53],25.5 µM (inactive)
COC1CCC(OC)C(C2(C3CC(OC)CCC3OC)OC(=O)c3ccccc32)C1 (configuration not stated),GI50,[1],> 100 µM (inactive)
same,GI50,[54],> 100 µM (inactive)
same,GI50,[2],> 100 µM (inactive)
same,GI50,[3],> 100 µM (inactive)
same,GI50,[4],> 100 µM (inactive)
same,GI50,[6],28.8 µM (inactive)
same,GI50,[7],> 100 µM (inactive)
same,GI50,[8],55.7 µM (inactive)
same,GI50,[9],22.6 µM (inactive)
same,GI50,[10],60.8 µM (inactive)
same,GI50,[11],66.4 µM (inactive)
same,GI50,[55],> 100 µM (inactive)
same,GI50,[12],37 µM
same,GI50,[13],13.7 µM (inactive)
same,GI50,[56],> 100 µM (inactive)
same,GI50,[14],> 100 µM (inactive)
same,GI50,[15],> 100 µM (inactive)
same,GI50,[16],33.8 µM (inactive)
same,GI50,[17],68.4 µM (inactive)
same,GI50,[18],22.2 µM (inactive)
same,GI50,[57],44.2 µM (inactive)
same,GI50,[19],38.9 µM (inactive)
same,GI50,[22],64.7 µM (inactive)
same,GI50,[24],14.6 µM (inactive)
same,GI50,[25],> 100 µM (inactive)
same,GI50,[26],86.7 µM (inactive)
same,GI50,[58],80.7 µM (inactive)
same,GI50,[27],86.3 µM (inactive)
same,GI50,[28],6.85 µM (inactive)
same,GI50,[29],75.9 µM (inactive)
same,GI50,[30],70.8 µM (inactive)
same,GI50,[31],> 100 µM (inactive)
same,GI50,[32],> 100 µM (inactive)
same,GI50,[33],19.8 µM (inactive)
same,GI50,[34],> 100 µM (inactive)
same,GI50,[35],> 100 µM (inactive)
same,GI50,[36],> 100 µM (inactive)
same,GI50,[37],82.2 µM (inactive)
same,GI50,[38],> 100 µM (inactive)
same,GI50,[40],93.8 µM (inactive)
same,GI50,[41],26.4 µM (inactive)
same,GI50,[42],> 100 µM (inactive)
same,GI50,[43],> 100 µM (inactive)
same,GI50,[44],> 100 µM (inactive)
same,GI50,[45],> 100 µM (inactive)
same,GI50,[46],> 100 µM (inactive)
same,GI50,[59],9.16 µM (inactive)
same,GI50,[47],59.2 µM (inactive)
same,GI50,[48],> 100 µM (inactive)
same,GI50,[49],93.8 µM (inactive)
same,GI50,[50],> 100 µM (inactive)
same,GI50,[51],94.8 µM (inactive)
same,GI50,[52],70.3 µM (inactive)
same,GI50,[53],76.4 µM (inactive)
N#C/C(=C\c1cc(O)cc(O)c1)C(N)=O,GI50,[1],> 100 µM (inactive)
same,GI50,[54],> 100 µM (inactive)
same,GI50,[2],> 100 µM (inactive)
same,GI50,[3],> 100 µM (inactive)
same,GI50,[4],> 100 µM (inactive)
same,GI50,[5],> 100 µM (inactive)
same,GI50,[6],> 100 µM (inactive)
same,GI50,[7],> 100 µM (inactive)
same,GI50,[8],> 100 µM (inactive)
same,GI50,[9],> 100 µM (inactive)
same,GI50,[10],> 100 µM (inactive)
same,GI50,[11],> 100 µM (inactive)
same,GI50,[55],> 100 µM (inactive)
same,GI50,[12],> 100 µM
same,GI50,[13],> 10 µM (inactive)
same,GI50,[14],> 100 µM (inactive)
same,GI50,[15],> 100 µM (inactive)
same,GI50,[16],> 100 µM (inactive)
same,GI50,[17],> 100 µM (inactive)
same,GI50,[18],> 100 µM (inactive)
same,GI50,[57],> 100 µM (inactive)
same,GI50,[19],80.5 µM (inactive)
same,GI50,[21],> 100 µM (inactive)
same,GI50,[22],> 100 µM (inactive)
same,GI50,[23],> 100 µM (inactive)
same,GI50,[24],> 100 µM (inactive)
same,GI50,[25],> 100 µM (inactive)
same,GI50,[26],> 100 µM (inactive)
same,GI50,[58],> 100 µM (inactive)
same,GI50,[27],> 100 µM (inactive)
same,GI50,[28],21 µM (inactive)
same,GI50,[29],> 100 µM (inactive)
same,GI50,[30],> 100 µM (inactive)
same,GI50,[31],> 100 µM (inactive)
same,GI50,[32],> 100 µM (inactive)
same,GI50,[33],> 100 µM (inactive)
same,GI50,[34],> 100 µM (inactive)
same,GI50,[35],> 100 µM (inactive)
same,GI50,[36],> 100 µM (inactive)
same,GI50,[37],> 100 µM (inactive)
same,GI50,[38],> 100 µM (inactive)
same,GI50,[39],> 100 µM (inactive)
same,GI50,[40],> 100 µM (inactive)
same,GI50,[42],> 100 µM (inactive)
same,GI50,[43],> 100 µM (inactive)
same,GI50,[44],> 100 µM (inactive)
same,GI50,[45],22 µM (inactive)
same,GI50,[46],> 100 µM (inactive)
same,GI50,[47],> 100 µM (inactive)
same,GI50,[48],> 100 µM (inactive)
same,GI50,[49],> 100 µM (inactive)
same,GI50,[50],> 100 µM (inactive)
same,GI50,[51],> 100 µM (inactive)
same,GI50,[52],> 100 µM (inactive)
same,GI50,[53],> 100 µM (inactive)
